From patent US20040157811A1, “Inhibition of the growth factor dependency of tumor cells” (priority 2000, published 2004)
Entries after “also recorded” stand apart in the source; their conditions may differ.

Assays:
[1] = system: breast carcinoma cell line T47D; assay: Growth studies, antiproliferative action on T47D cells (crystal violet); format: cell-based, human; conditions: 0.1 nM estradiol, 6 days, increasing concentrations, FIG. 1
Experimental: The tumor cells were cultivated at 5000 cells/well in 96-well plates for 6 days in RPMI medium plus 10% bovine serum, 200 nM of insulin and 0.1 nM of estradiol in the presence of the compounds that are indicated in each case, and the growth was determined by staining with crystal violet.
2. […] T47D cells were cultivated in the presence (upper cross-hatching) or absence (lower cross-hatching) of 0.1 nM of E2 plus increasing concentrations of compound A (▴), onapristone (▪), ZK191703 (●) or 4-OH-Tam (♦).

[2] = system: binding of EGF to T47D cells; assay: Binding of 125I-EGF to tumor cells (R5020-pretreated T47D cells); format: cell-based, human; conditions: for block of the R5020-caused increase of 125I-EGF binding to intact T47D cells: T47D cells treated 48 hours with 2 or 20 nM R5020 plus test substance, FIG. 5
Experimental: R5020-Pretreated T47D cells were incubated for 2 hours with ^125I-EGF at 4° C. The unspecific binding was always less than 10% of the total binding.
In FIG. 4, a Scatchard analysis of the ^125I-EGF binding to T47D cells is shown. The cells were cultivated for 48 hours in the presence of 20 nM of R5020 with or without 20 nM of compound A and then washed. Then, the EGF-binding over a concentration range of 0.25 to 150 ng/ml of EGF was determined by incubation for 2 hours at 4° C. The insertions show the amount of bonded ligands relative to the logarithm of the free ligand concentration.
In FIG. 5, the binding of ^125I-EGF to intact T47D cells is shown. For this purpose, the cells were treated for 48 hours with 2 or 20 nM of R5020 plus compound A or onapristone or compound A alone.

[3] = target: T1, progesterone receptor (PR) (Homo sapiens, UniProt P06401); assay: Transactivation assay (MTV-LUC, luciferase) in T47D cells; format: cell-based; conditions: T47D cells transiently transfected with MTV-LUC, treated with R5020 plus increasing concentrations, 24 hours, FIG. 3
T1 construct: T47D cells were transiently transfixed with MTV-LUC; endogenous in cells; host or cells: T47D human breast carcinoma cells
T1 sequence (P06401 1-933): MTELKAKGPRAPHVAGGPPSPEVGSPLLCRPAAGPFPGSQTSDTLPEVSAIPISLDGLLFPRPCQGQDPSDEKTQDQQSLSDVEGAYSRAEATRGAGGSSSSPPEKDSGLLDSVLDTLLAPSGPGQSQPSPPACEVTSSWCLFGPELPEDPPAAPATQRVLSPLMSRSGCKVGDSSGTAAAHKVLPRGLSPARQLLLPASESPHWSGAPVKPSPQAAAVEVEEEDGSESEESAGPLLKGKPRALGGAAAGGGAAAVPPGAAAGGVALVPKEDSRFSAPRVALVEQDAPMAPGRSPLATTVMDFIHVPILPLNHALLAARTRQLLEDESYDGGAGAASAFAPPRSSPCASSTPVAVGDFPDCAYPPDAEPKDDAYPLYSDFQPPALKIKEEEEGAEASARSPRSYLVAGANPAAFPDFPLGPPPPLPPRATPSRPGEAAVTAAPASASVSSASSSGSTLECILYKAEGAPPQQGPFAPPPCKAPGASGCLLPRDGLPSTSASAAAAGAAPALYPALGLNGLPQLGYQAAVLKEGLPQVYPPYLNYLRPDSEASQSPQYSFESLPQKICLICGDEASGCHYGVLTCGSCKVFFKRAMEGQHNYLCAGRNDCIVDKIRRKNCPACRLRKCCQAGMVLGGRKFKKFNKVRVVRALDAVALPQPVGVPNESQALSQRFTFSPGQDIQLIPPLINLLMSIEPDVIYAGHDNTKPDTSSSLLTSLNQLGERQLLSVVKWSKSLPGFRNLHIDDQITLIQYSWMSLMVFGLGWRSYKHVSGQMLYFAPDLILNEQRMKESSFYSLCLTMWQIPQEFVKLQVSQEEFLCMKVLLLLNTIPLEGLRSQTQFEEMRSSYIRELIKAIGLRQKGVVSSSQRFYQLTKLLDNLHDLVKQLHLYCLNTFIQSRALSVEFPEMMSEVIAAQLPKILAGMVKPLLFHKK
Experimental: T47D cells were transiently transfixed with MTV-LUC (Cato et al., EMBO J., 9: 2237-40) and cultivated in the absence or the presence of 1 nM of R5020. In the test on a PR-mediated antagonism, the transiently transfixed T47D cells were treated with R5020 and in addition with increasing concentrations of compound A or RU486. After 24 hours, a luciferase test was performed.
In the test for a PR-mediated antagonism, the transiently transfixed T47D cells were treated with 0.1 nM of R5020 and increasing concentrations of compound A or […] (b).

[4] = system: EGF-receptor expression; assay: EGF-receptor expression in R5020-stimulated T47D cells; format: cell-based, human; conditions: T47D cells stimulated with R5020

SMILES | antiproliferative action / block of estradiol-stimulated growth of T47D cells [1] | block of the R5020-caused increase of 125I-EGF binding to intact T47D cells [2] | block of the R5020-caused increase of 125I-EGF binding (Scatchard analysis) ([2]; T47D cells, 48 hours, 20 nM R5020 with 20 nM compound A, EGF 0.25 to 150 ng/ml, 2 hours at 4° C, FIG. 4) | block of transcriptional activity of PR (PR-mediated antagonism) [3] | block of R5020-increased EGF-receptor expression [4]
CC(=O)c1ccc([C@H]2C[C@@]3(C)[C@@H](CC[C@@]3(O)C(F)(F)C(F)(F)F)[C@@H]3CCC4=CC(=O)CCC4=C32)cc1 [compound A, 11β-(4-acetylphenyl)-17β-hydroxy-17α-(1,1,2,2,2-pentafluoroethyl)-estra-4,9-dien-3-one] | significant antiproliferative action at extremely small concentrations; also recorded: effectively blocked | blocks the increase of the EGF-binding; also recorded: could be prevented | block the increase of the EGF binding | could be blocked | blocked
CN(C)c1ccc([C@H]2C[C@]3(C)[C@@H](CC[C@]3(O)CCCO)[C@@H]3CCC4=CC(=O)CCC4=C32)cc1 [onapristone, 11β-[p-(dimethylamino)phenyl]-17α-hydroxy-17-(3-hydroxypropyl)-13α-estra-4,9-dien-3-one, reference compound] | – | considerably weaker effect; also recorded: less efficiently | – | – | –
